# Results published in US11904054B2, “Compositions and methods for delivering pharmaceutical agents” (Arizona Board of Regents on Behalf of the University of …, priority 2018, dated 2024).
# What was measured:
# [1] = Residual water content by Karl Fischer titration; format: physicochemical; conditions: Karl Fisher Titration, n = 3, Mean ± SD
# Text: (§1) Using conditions similar to previously reported (Li, X., et al., J Aerosol Med Pulm Drug Deliv, 2014. 27(2): p. 81-93; Li, X., et al., European Journal of Pharmaceutical Sciences, 2014. 52: p. 191-205; Meenach, S. A., et al., AAPS PharmSciTech, 2014. 15(6): p. 1574-87; Li, X., et al., Pharm Sci, 2014. 103(9): p. 2937-49; Meenach, S. A., et al., European Journal of Pharmaceutical Sciences, 2013. 49(4): p. 699-797; Muralidharan, P., et al., The Royal Society of Chemistry(RSC): Molecular Systems Design & Engineering, 2016: p. 1-18), the residual water content of all SD and Co-SD powders were quantified analytically by Karl Fischer titration (KFT) coulometrically using a TitroLine 7500 trace titrator (SI Analytics, Germany).
# Approximately 2-10 mg of powder was added to the titration cell containing Hydranal® Coulomat AD reagent. The residual water content was then calculated.
# MCT rats = assay: PH development in MCT rats; format: in vivo
# [2] = Particle sizing and size distribution by image analysis of SEM micrographs; format: physicochemical
# Text: as §1, with “visual imaging and analysis” for “the residual water content”, “particle size, morphology,” for “all SD”, “surface morphology” for “Co-SD powders”, “achieved” for “quantified analytically”, “scanning electron microscopy (SEM)” for “Karl Fischer titration (KFT) coulometrically”, “FEI Inspect S microscope (FBI, Brno, Czech republic). […]” for “TitroLine 7500 trace titrator (SI Analytics, Germany).”
# The mean size, standard deviation, and size range were determined using SigmaScan™ Pro 5.0.0 (Systat, Inc., San Jose, Calif.) based on their scanning electron micrographs using a similar procedure that we have previously reported (Muralidharan et al., supra; Meenach, S. A., et al., AAPS PharmSciTech, 2014. 15(6): p. 1574-87). Representative micrographs for each particle sample at 3000× magnification was analyzed by measuring the diameter of at least 100 particles per sample.
compound,measurement,setting,value
"OC[C@@H](O)[C@@H](O)[C@H](O)[C@H](O)CO [Raw Man, D-mannitol]",Water content,[1],0.3 ± 0.13 % (w/w)
"C[N+](C)(C)C[C@H](O)CC(=O)[O-] [Raw L-Car, L-Carnitine]",PH development,MCT rats,attenuates PH development
same,Water content,[1],2.68 ± 0.8 % (w/w)
same,"Particle size, Range",[2]; n = 100,298.38-1810.57 μm
same,"Particle size, Mean","[2]; n = 100, Mean ± SD",659.05 ± 235.82 μm
